# Data taken from patent US9532983B2, “Benzofuran compounds, compositions, kits and/or methods thereof” (Savannah State University, priority 2013, dated 2017).
# Entries after “also recorded” stand apart in the source; their conditions may differ.
# Tests used:
# σ1 receptor = assay: Western blot, expression of σ1 receptor in MA-10 cells; assay type: cell-based, mouse; settings: 24 h, increasing concentrations
# Experimental: (§1) Cells were maintained at 37° C. in a humidified incubator under 5% CO2. To isolate mitochondria, cells were removed from tissue culture plates by gentle scrapping in phosphate-buffered saline at room temperature, incubated in hypotonic buffer (10 mM HEPES, pH 7.4) for 30 to 40 min, and mitochondria were isolated following readily available procedures. The mitochondrial preparation was verified by Western blotting with the cytochrome P450 SCC enzyme (Corgen, Tapai, Taiwan) and calnexin antibodies (Santa Cruz Biotechnology, Inc., Santa Cruz, Calif.).
# (§2) The membrane was blocked with 3% nonfat dry milk for 45 min, probed overnight with the primary antibodies, and then incubated with […] goat anti-rabbit or anti mouse IgG (Thermo Fisher Scientific, Waltham, Mass.). Signals were developed with chemiluminescent reagent (Thermo Fisher Scientific). For loading control of all Western blots, the membrane was stained with β-actin antibody, which was previously independently stained with StAR or 3-β-hydroxysteroid dehydrogenase (3βHSD2) or VDAC1 and VDAC2 antiserum. The band intensity was determined by using Image Quant 5.2 (Phosphorimager; GE Healthcare, Chalfont St. Giles, Buckinghamshire, UK). Densitometric calculation may reflect the ratio of σ1 or VDAC2 and β-actin following an established procedure that is readily available.
# (§3) In addition, VDAC2 antibody (FIG. 3E) was used to probe and was compared with β-actin expression (FIG. 3F) of the same membrane.
# VDAC2 = assay: Western blot / densitometry, expression of VDAC2 in MA-10 cells; assay type: cell-based, mouse; settings: increasing concentrations
# Experimental: as §1, with “Mouse Leydig cell line (MA-10) was grown in Waymouth media containing 15% horse serum, 5% fetal bovine serum, and 1× gentamycin, which was replaced with […] G418 (geneticin) for VDAC1 knockdown (ΔVDAC1) MA10 cells. Cells” for “Cells”
# as §2, with “Protein (12.5 μg) was separated by 15% SDS-polyacrylamide gel electrophoresis and transferred to a polyvinylidinedifluoride membrane (Millipore Corporation, Billerica, Mass.). The membrane” for “The membrane”
# as §3
# [1] = Cell viability assay (MTT) in MA-10 cells; assay type: cell-based, mouse; settings: mouse, MA-10 Leydig cells, read-out: decrease in cell viability
# Experimental: as §1, with “Mouse Leydig cell line (MA-10) was grown in Waymouth media containing 15% horse serum, 5% fetal bovine serum, and 1× gentamycin, which was replaced with […] G418 (geneticin) for VDAC1 knockdown (ΔVDAC1) MA10 cells. Cells” for “Cells”
# Stock solutions (1 mM) of the ligands were made in 1× phosphate buffered saline, filter-sterilized, and then further diluted up to 1 μM with serum-free medium. Cell viability was determined by the 3-[4,5-dimethylthiazol-2yl]-2,5-diphenyltetrazolium bromide assay using a commercially available kit following the manufacturer's instructions (Promega, Madison, Wis.). MA-10 cells were plated in a 96-well plate at an initial density of 4×10^3 cells per well for 24 h at 37° C. in 5% CO2 atm. After 24 h of serum starvation, the culture media were changed to serum-free media containing 1, 5, 10, 50, and 100 nM concentration for each KSCM ligand. Next, the cells were incubated for 2 to 3 h with 0.5 mg/ml of 3-[4,5-dimethylthiazol-2yl]-2,5-diphenyltetrazolium bromide reagent and lysed with dimethyl sulfoxide, and the absorbance was measured at 550 nm (FlexStation 3; Molecular Devices, Sunnyvale, Calif.).
# [2] = system: mitochondria from steroidogenic MA-10 cells; assay: Metabolic conversion of [3H]pregnenolone to progesterone in isolated MA-10 mitochondria; assay type: biochemical, mouse
# Experimental: as §1, with “Mouse Leydig cell line (MA-10) was grown in Waymouth media containing 15% horse serum, 5% fetal bovine serum, and 1× gentamycin, which was replaced with […] G418 (geneticin) for VDAC1 knockdown (ΔVDAC1) MA10 cells. Cells” for “Cells”
# To measure the conversion of [^3H]pregnenolone to [^3H]progesterone, isolated mitochondria from steroidogenic MA-10 cells (300 μg) were incubated in phosphate buffer along with the substrate, and the reaction was initiated by the NAD. For metabolic conversion of [^14C]cholesterol to pregnenolone, the reaction was initiated by the addition of NADPH, and for complete conversion we used 5-fold excess of cold carrier to reach the saturation point. The steroids were extracted with ether/acetone (9:1 v/v), and equal amounts of a cold pregnenolone-progesterone (50:50; Sigma, St. Louis, Mo.) mixture in CH2C12 was added as a carrier. The extracts were concentrated under a stream of nitrogen or air and then separated by thin-layer chromatography (TLC) (Whatman, Clifton, N.J.) using a chloroform/ethyl acetate (3:1) mobile phase.
# Given the potential role of σ1 in steroidogenesis (FIG. 4A), we performed conversion assays in the presence of three sigma receptor ligands. […] The possibility exists that the σ1 receptor transiently interacts with the OMM-associated porins. As such, the increased levels of σ1 receptor with KSCM-11 may enhance the transport of substrate cholesterol into the mitochondria, thereby increasing progesterone synthesis.
# 3βHSD2 = assay: Western blot, expression of 3βHSD2 in MA-10 cells; assay type: cell-based, mouse; settings: any concentration
# Experimental: as §1, with “Mouse Leydig cell line (MA-10) was grown in Waymouth media containing 15% horse serum, 5% fetal bovine serum, and 1× gentamycin, which was replaced with […] G418 (geneticin) for VDAC1 knockdown (ΔVDAC1) MA10 cells. Cells” for “Cells”
# as §2, with “Protein (12.5 μg) was separated by 15% SDS-polyacrylamide gel electrophoresis and transferred to a polyvinylidinedifluoride membrane (Millipore Corporation, Billerica, Mass.). The membrane” for “The membrane”
# as §3
# Alpha2C = target: T1, Alpha2C (Homo sapiens, UniProt P18825); assay: Primary binding assay at non-sigma receptors: Alpha2C; settings: 10 μM (final) assay concentration
# T1 construct: expressed in transfected cells
# T1 sequence (P18825 1-462): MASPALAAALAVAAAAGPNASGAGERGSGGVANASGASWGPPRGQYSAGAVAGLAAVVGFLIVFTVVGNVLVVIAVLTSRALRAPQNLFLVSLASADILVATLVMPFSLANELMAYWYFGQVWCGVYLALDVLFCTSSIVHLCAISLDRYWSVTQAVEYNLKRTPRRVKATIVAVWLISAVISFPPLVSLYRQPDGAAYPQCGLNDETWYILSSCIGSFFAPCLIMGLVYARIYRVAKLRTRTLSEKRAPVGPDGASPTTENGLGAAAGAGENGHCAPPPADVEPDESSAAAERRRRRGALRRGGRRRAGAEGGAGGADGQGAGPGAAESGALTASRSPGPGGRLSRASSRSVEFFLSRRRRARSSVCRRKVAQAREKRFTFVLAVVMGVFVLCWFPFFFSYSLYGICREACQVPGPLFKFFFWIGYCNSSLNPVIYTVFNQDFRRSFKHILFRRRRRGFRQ
# Experimental: Initial primary binding screening assays were performed using a 50 μM (initial)−10 μM (final) assay concentration of reference and test compounds.
# [3] = higher concentrations than 10 nM
Compound,expression of the σ1 receptor (in words) (σ1 receptor),expression of VDAC2 (in words) (VDAC2),cytotoxicity at 24 h ([1]; 1-5 nM),effect on progesterone conversion (in words) ([2]; 10 nM),"effect on progesterone conversion (in words) [2, 3]",level of 3βHSD2 (in words) (3βHSD2),inhibition at 10 µM (Alpha2C),"cytotoxicity at 24 h, 1 nM [1]","cytotoxicity at 24 h, 100 nM [1]"
"COc1ccc2c(C)c(C(=O)N(CCCN3CCCCC3)c3ccccc3)oc2c1 [KSCM-11, 6-Methoxy-3-methyl-N-phenyl-N-(3-(piperidin-1-yl)propyl)benzofuran-2-carboxamide]",increased expression; also recorded: moderately increased,decreased with increasing concentrations,3.3%,no effect,conversion decreased significantly,no change,49%,,
"COc1cc2oc(C(=O)N(CCCN3CCCCC3)c3ccccc3)c(C)c2cc1OC [KSCM-1, 5,6-Dimethoxy-3-methyl-N-phenyl-N-(3-(piperidin-1-yl)propyl)benzofuran-2-carboxamide]",increased expression; also recorded: increased with increasing concentrations,increased with increasing concentrations,,,reduced conversion to the basal level,no change,78.9%,3.5%,16%
"Cc1c(C(=O)N(CCCN2CCCCC2)c2ccccc2)oc2ccccc12 [KSCM-5, 3-Methyl-N-phenyl-N-(3-(piperidin-1-yl)propyl)benzofuran-2-carboxamide]",increased only minimally; also recorded: remained unchanged,decreased with increasing concentrations,,no effect,conversion decreased significantly,no change,61.9%,28%,74%
